We go through eleven compounds from paper PMC6556873, “Rapid Covalent-Probe Discovery by Electrophile-Fragment Screening” (Journal of the American Chemical Society, 2019).

Like-named read-outs stand apart in the source and are kept apart here.

Data set [1] can be described thus: in vitro. Details: species or system CCD841, HEK293. Particulars: human, hb2 cells, read-out: HB-2 Cells Viability (%).
The nature of data set [2]: in vitro. Also noted: species or system HB2, CCD841. As to conditions: human, hek293 cells.
The next data set deals with T1, NUDT7 (Homo sapiens, UniProt P0C024).
T1 construct: residues 14-235, E. coli, pNIC28-Bsa4, N-terminal His6 tag removed by TEV, construct 26672 Da
T1 sequence (P0C024 14-235): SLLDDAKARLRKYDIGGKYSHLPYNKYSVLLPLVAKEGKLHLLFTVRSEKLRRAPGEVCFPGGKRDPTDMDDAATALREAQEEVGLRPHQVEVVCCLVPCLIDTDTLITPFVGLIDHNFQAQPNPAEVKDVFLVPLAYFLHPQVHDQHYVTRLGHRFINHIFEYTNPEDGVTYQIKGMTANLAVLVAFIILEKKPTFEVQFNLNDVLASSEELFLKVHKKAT
Details: Intact protein LC/MS covalent labelling, fragments in pools of five, 200 uM each, 4 °C. As to conditions: 24 h, 4 °C, pool of five; 200 µM; covalent. As to the method: (§1) Incubations were performed at 200 μM for each compound and 2 μM of protein (10 μM for BSA) for 24 h at 4 °C with moderate shaking. Incubation buffers varied among proteins (PBS pH 7.4 for QSOX1 and BSA; 10 mM HEPES pH 7.5, 0.3 M NaCl, 0.5 mM TCEP for PCAF, UPS8, and NUDT7; […]; 10 mM Na2HPO4 pH 7.5 100 mM NaCl 5 mM β-mercaptoethanol for NV3CP; 20 mM Na phosphate pH 7.5 for NNMT; […]. The reaction was stopped by quenching with formic acid, 0.4% final concentration. Each protein was incubated with the electrophilic library in pools of five compounds per well. The pool’s composition maximized the difference in mass between fragments in the same well. Incubations were performed with each fragment at 200 μM, for 24 h at 4 °C, to allow the screening of proteins that are not stable for long time periods at higher temperatures. Following incubation, we used intact protein [compound left out] chromatography/mass spectrometry (LC/MS) to identify the fragments and quantify their labeling (Figure 3A). […] There was good agreement between the percent of labeling of NUDT7 by 100 random individual compounds and that obtained in pools of five (R^2=0.78; Figure S6 and Data set 2 in the Supporting Information).

In a further data set the target is T2, PCAF (Homo sapiens, UniProt Q92831).
T2 construct: gene KAT2B
T2 sequence (Q92831 whole entry): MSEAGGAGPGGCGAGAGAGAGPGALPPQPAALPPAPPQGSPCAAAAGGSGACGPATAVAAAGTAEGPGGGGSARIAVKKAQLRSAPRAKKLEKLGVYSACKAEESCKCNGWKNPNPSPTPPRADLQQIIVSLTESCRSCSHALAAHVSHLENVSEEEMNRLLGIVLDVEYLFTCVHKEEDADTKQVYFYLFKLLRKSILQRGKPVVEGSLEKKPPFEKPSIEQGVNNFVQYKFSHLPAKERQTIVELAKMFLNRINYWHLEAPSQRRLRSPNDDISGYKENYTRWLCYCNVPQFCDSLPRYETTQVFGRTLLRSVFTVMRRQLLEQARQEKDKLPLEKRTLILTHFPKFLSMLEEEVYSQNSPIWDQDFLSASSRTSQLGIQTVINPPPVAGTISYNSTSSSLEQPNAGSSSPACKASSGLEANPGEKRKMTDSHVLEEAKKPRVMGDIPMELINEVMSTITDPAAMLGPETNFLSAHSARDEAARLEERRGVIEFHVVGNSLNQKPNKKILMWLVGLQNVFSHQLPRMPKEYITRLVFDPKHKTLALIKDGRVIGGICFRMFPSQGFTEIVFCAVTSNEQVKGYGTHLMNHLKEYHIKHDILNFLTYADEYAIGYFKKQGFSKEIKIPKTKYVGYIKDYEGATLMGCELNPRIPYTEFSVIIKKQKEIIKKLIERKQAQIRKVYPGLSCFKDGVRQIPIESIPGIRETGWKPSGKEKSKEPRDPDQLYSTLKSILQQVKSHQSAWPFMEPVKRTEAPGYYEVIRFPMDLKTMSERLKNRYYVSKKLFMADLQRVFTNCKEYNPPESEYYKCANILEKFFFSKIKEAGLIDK
Details: Intact protein LC/MS covalent labelling, fragments in pools of five, 200 uM each, 4 °C. Particulars: 24 h, 4 °C, pool of five; 200 µM; covalent. As to the method: as §1

In the next data set the target is T3, OTUB2 (OTUB2A) (Homo sapiens, UniProt Q96DC9).
T3 construct: full length residues 1-234, E. coli BL21(DE3)-R3, His tag removed by TEV, construct 27312 Da
T3 sequence (Q96DC9 1-234): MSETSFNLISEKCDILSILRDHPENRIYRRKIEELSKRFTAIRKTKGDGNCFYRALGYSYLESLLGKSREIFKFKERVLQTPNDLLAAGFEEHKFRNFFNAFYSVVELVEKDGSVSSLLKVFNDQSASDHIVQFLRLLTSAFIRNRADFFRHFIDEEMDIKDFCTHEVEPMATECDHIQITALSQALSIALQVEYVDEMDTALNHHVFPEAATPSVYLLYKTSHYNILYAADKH
Also noted: Intact protein LC/MS covalent labelling, fragments in pools of five, 200 uM each, 4 °C. Particulars: 24 h, 4 °C, pool of five; 200 µM; covalent. On the procedure:
as §1

For the next data set, the target named is T4, BSA (Bos taurus, UniProt P02769).
T4 construct: gene ALB
T4 sequence (P02769 whole entry): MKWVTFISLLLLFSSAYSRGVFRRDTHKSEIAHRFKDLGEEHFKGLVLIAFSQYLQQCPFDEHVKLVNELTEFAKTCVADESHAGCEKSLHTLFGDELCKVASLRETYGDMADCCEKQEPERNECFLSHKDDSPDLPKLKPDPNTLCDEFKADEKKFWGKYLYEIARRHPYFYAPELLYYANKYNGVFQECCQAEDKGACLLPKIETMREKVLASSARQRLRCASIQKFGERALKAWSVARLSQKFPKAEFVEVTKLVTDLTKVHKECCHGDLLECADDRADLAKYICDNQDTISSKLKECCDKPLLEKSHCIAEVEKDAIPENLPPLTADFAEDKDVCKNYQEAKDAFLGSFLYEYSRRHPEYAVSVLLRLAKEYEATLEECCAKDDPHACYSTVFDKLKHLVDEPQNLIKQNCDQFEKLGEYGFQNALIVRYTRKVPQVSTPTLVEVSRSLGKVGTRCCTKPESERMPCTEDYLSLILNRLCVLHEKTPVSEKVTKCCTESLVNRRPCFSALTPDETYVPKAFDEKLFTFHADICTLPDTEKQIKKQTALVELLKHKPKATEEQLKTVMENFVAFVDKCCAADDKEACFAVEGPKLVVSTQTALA
Details: Intact protein LC/MS covalent labelling, fragments in pools of five, 200 uM each, 4 °C. Particulars: 24 h, 4 °C, pool of five; 200 µM; covalent. As to the method:
as §1

Data set [3] in a line: in vitro. Also noted: species or system HB2, HEK293. Particulars: human, ccd841 cells.

Usually viability stands for a read-out of living cells in per cent, often relative to untreated cells. As to `Cc1cccc(NC(=O)CCl)c1` [PCM-0102116], the results for the viability at 48 h, 10 µM in “in vitro [1]”, in “in vitro [2]” and in “in vitro [3]” were 33.7%, 9% and 66.4%, respectively. Further, the NUDT7 on NUDT7 is 0. The compound also came in with a PCAF on PCAF of 0. In addition, the OTUB2 at OTUB2 (OTUB2A) was 0.11. This compound registered a BSA on BSA of 0.

With `C=CC(=O)NCC1(O)CCS(=O)(=O)CC1` [PCM-0102691], the viability at 48 h, 10 µM in “in vitro [1]” was determined as 104%; in the data set “in vitro [2]” it was 103%; in “in vitro [3]” it was 104%. For the same compound, the NUDT7 on NUDT7 was found to be 0. The compound further came in with a PCAF at PCAF of 0. Moreover, the OTUB2 at OTUB2 (OTUB2A) is on record as 0.2. In addition, the BSA on BSA is given as 0.

Turning to `CC1CCCC(NC(=O)CCl)C1C` (centres unmarked) [PCM-0102663], the viability at 48 h, 10 µM was determined as 98.5% in the data set “in vitro [1]”, 87.3% in the data set “in vitro [2]” and 104% in the data set “in vitro [3]”. The compound also showed an NUDT7 on NUDT7 of 0. In addition, the PCAF at PCAF came out at 0. The OTUB2 at OTUB2 (OTUB2A) stood at 0.29. At BSA, this compound had a BSA of 0.21.

Regarding `O=C(CCl)Nc1ccc(Cl)nc1` [PCM-0102891], the viability at 48 h, 10 µM was 31.5% in “in vitro [1]”, 9% in the data set “in vitro [2]” and 33.2% in the data set “in vitro [3]”. For the same compound, the NUDT7 at NUDT7 amounted to 0.25. Moreover, at PCAF, the PCAF was found to be 0. On OTUB2 (OTUB2A), this compound showed an OTUB2 of 0. At BSA, the BSA is listed as 0.

As for `O=C(CCl)Nc1ccccc1C(=O)O` [PCM-0102307], the viability at 48 h, 10 µM in “in vitro [1]” is 105%; in “in vitro [2]”, 78.8%; in “in vitro [3]”, 96.5%. Also, on NUDT7, the NUDT7 came to 0. Moreover, the PCAF on PCAF is on record as 0. On OTUB2 (OTUB2A), this compound showed an OTUB2 of 0. Moreover, the BSA on BSA came out at 0.

Take `C=CC(=O)N(C1CC1)C1CC(=O)NC1=O` (centres unmarked) [PCM-0102646]: the viability at 48 h, 10 µM worked out at 103% in the data set “in vitro [1]”, 94.9% in the data set “in vitro [2]” and 98.4% in “in vitro [3]”. On NUDT7, this compound displayed an NUDT7 of 0. For the same compound, the PCAF at PCAF is on record as 0. The compound further registered an OTUB2 on OTUB2 (OTUB2A) of 0. This compound showed a BSA on BSA of 0.

Regarding `C=CC(=O)NC1CC(C)(C)OC1(C)C` (centres unmarked) [PCM-0102562], the viability at 48 h, 10 µM in “in vitro [1]” was 107%; in “in vitro [2]”, 94.8%; in the data set “in vitro [3]”, 114%. The NUDT7 at NUDT7 is on record as 0. The PCAF on PCAF was 0. In addition, the OTUB2 on OTUB2 (OTUB2A) is recorded as 0. Moreover, on BSA, the BSA is given as 0.

As to `Cc1ccc(S(=O)(=O)N2CCN(C(=O)CCl)CC2)cc1C` [PCM-0102379], the results for the viability at 48 h, 10 µM in the data set “in vitro [1]”, in the data set “in vitro [2]” and in “in vitro [3]” were 1.8%, 2.7% and 22.6%, respectively. At NUDT7, the NUDT7 was 0.1. Also, the PCAF at PCAF came to 0. Also, the OTUB2 at OTUB2 (OTUB2A) is reported as 0. The same compound gave a BSA on BSA of 0.

Turning to `Cc1nn(-c2ccccc2)c(C)c1NC(=O)CCl` [PCM-0102501], the values for the viability at 48 h, 10 µM in the data set “in vitro [1]”, in the data set “in vitro [2]” and in “in vitro [3]” were 83.2%, 62.2% and 68.3%, respectively. Besides, the NUDT7 on NUDT7 worked out at 0.09. At PCAF, the PCAF turned out to be 0. The compound also had an OTUB2 on OTUB2 (OTUB2A) of 0.09. Also, the BSA at BSA is reported as 0.

For `O=C(CCl)Nc1ccc(N2CCCCC2)cc1` [PCM-0102612], the viability at 48 h, 10 µM amounted to 41.7% in “in vitro [1]”, 57.2% in “in vitro [2]” and 55.2% in the data set “in vitro [3]”. This compound also showed an NUDT7 at NUDT7 of 0. The compound further returned a PCAF at PCAF of 0. Further, the OTUB2 on OTUB2 (OTUB2A) worked out at 0.37. The same compound came in with a BSA on BSA of 0.

As for `Cc1ccc(C2=NN(C(=O)CCl)C(c3ccco3)C2)o1` (centres unmarked) [PCM-0102102], the viability at 48 h, 10 µM in “in vitro [1]” turned out to be 9.4%; in the data set “in vitro [2]”, 1.6%; in the data set “in vitro [3]”, 12.7%. Also, the NUDT7 on NUDT7 turned out to be 0.2. The PCAF on PCAF turned out to be 0. On OTUB2 (OTUB2A), this compound returned an OTUB2 of 0. The compound further had a BSA at BSA of 0.
